Like-named read-outs stand apart in the source and are kept apart here. Marks after values point to notes of the source that are not given here.
Experiments:
ABL T315I = target: T1, ABL T315I (Homo sapiens, UniProt P00519, T315I); assay: In vitro kinase assay (Z'-LYTE), ABL T315I; format: biochemical; conditions: read-out: % of inhibition of the kinase compared to the control
T1 construct: purchased Invitrogen
Procedure: (§1) 1) In Vitro Kinase Assays (Table 10 to Table 21)
(§2) The inhibitory activity of the compounds on several kinases including BRAF, EGFR (ErbB1), EGFR (ErbB1) T790M L858R, FGFR2, KDR (VEGFR2), PDGFRA (PDGFR alpha), SRC and other was evaluated by Invitrogen using the Z′-LYTE® technology. Briefly, the Z′-LYTE® biochemical assay employs a fluorescence-based, coupled-enzyme format and is based on the differential sensitivity of phosphorylated and non-phosphorylated peptides to proteolytic cleavage. The peptide substrate is labeled with two fluorophores—one at each end—that make up a FRET pair. A ratiometric method, which calculates the ratio (the Emission Ratio) of donor emission to acceptor emission after excitation of the donor fluorophore at 400 nm, is used to quantitate reaction progress.
(§3) The compounds are screened in 1% DMSO (final) in the well. For 10 point titrations, 3-fold serial dilutions are conducted from the starting concentration. All Peptide/Kinase Mixtures are diluted to a 2× working concentration in the appropriate Kinase Buffer. All ATP Solutions are diluted to a 4× working concentration in Kinase Buffer (50 mM HEPES pH 7.5, 0.01% BRIJ-35, 10 mM MgCl2, 1 mM EGTA). ATP Km apparent is previously determined using a Z′-LYTE® assay.
(§4) Each compound was incubated at a concentration of 100 nM (excepted to test the activity against ABL and ABL T315I for which the compounds were incubated at a concentration of 10 μM) and the tables 10 to 21 summarize the results obtained showing the inhibitory power of a compound.

ABL = target: T2, ABL (Homo sapiens, UniProt P00519); assay: In vitro kinase assay (Z'-LYTE), ABL; format: biochemical; conditions: read-out: % of inhibition of the kinase compared to the control
T2 construct: purchased Invitrogen
Procedure: as §1, §2, §3, §4

HepG2 cell line = assay: In vitro cell proliferation assay (MTT), HepG2; format: cell-based; conditions: Homo sapiens, read-out: EC50, anti-proliferative activity
Outline: (§5)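 Duplicate wells of each line were exposed for 72 hr to 10 nM–3 μM compound. HRMEC were plated at 1×10^4 cells per well, cancer cells at 5×10^3.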

BxPC-3 cell line = assay: In vitro cell proliferation assay (MTT), BxPC-3; format: cell-based; conditions: Homo sapiens, read-out: EC50, anti-proliferative activity
Procedure: (§6) 2) In Vitro Cell Proliferation Assays (Table 22 to Table 35)
(§7) Cancer cell lines (5×10^3 cells per well) or HUVEC (1×10^4 cells per well) or HRMEC (1×10^4 cells per well) were distributed in 96-well plates and incubating in duplicate with escalating concentrations (10 nM to 3 μM) of compounds for 72 hr. Cell proliferation was measured using MTT (3[4,5-dimethylthiazol-2-yl]-2,5-diphenyltetrazolium bromide).

KDR (VEGFR2) = target: T3, KDR (VEGFR2) (Homo sapiens, UniProt P35968); assay: In vitro kinase assay (Z'-LYTE), KDR (VEGFR2); format: biochemical; conditions: read-out: % of inhibition of the kinase compared to the control
T3 construct: purchased Invitrogen
Outline: (§8)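 Compounds at a single dose (100 nM; 10 μM for both ABL forms) were run in a fluorescence coupled-enzyme kinase format relying on differential protease sensitivity of phospho versus non-phospho peptide. Reaction progress was measured ratiometrically from the FRET pair.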

FGFR2 = target: T4, FGFR2 (Homo sapiens, UniProt P21802); assay: In vitro kinase assay (Z'-LYTE), FGFR2; format: biochemical; conditions: read-out: % of inhibition of the kinase compared to the control
T4 construct: purchased Invitrogen
Outline: as §8

A549 cell line = assay: In vitro cell proliferation assay (MTT), A549; format: cell-based; conditions: Homo sapiens, read-out: EC50, anti-proliferative activity
Outline: as §5

PDGFRA (PDGFR alpha) = target: T5, PDGFRA (PDGFR alpha) (Homo sapiens, UniProt P16234); assay: In vitro kinase assay (Z'-LYTE), PDGFRA; format: biochemical; conditions: read-out: % of inhibition of the kinase compared to the control
T5 construct: purchased Invitrogen
Outline: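 Z'-LYTE, HEPES pH 7.5/MgCl2/EGTA/BRIJ-35 buffer, 1% DMSO; cpd 100 nM (ABL, ABL T315I: 10 μM); ratiometric FRET read-out after protease development; % inhibition.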

BRAF = target: T6, BRAF (Homo sapiens, UniProt P15056); assay: In vitro kinase assay (Z'-LYTE), BRAF; format: biochemical; conditions: read-out: % of inhibition of the kinase compared to the control
T6 construct: purchased Invitrogen
Outline: as §8

HT29 cell line = assay: In vitro cell proliferation assay (MTT), HT29; format: cell-based; conditions: Homo sapiens, read-out: EC50, anti-proliferative activity
Procedure: as §6, §7

SRC = target: T7, SRC (Homo sapiens, UniProt P12931); assay: In vitro kinase assay (Z'-LYTE), SRC; format: biochemical; conditions: read-out: % of inhibition of the kinase compared to the control
T7 construct: purchased Invitrogen
Outline: as §8

EGFR (ErbB1) T790M L858R = target: T8, EGFR (ErbB1) T790M L858R (Homo sapiens, UniProt P00533, L858R/T790M); assay: In vitro kinase assay (Z'-LYTE), EGFR (ErbB1) T790M L858R; format: biochemical; conditions: read-out: % of inhibition of the kinase compared to the control
T8 construct: purchased Invitrogen
Outline: as §8

EGFR (ErbB1) = target: T9, EGFR (ErbB1) (Homo sapiens, UniProt P00533); assay: In vitro kinase assay (Z'-LYTE), EGFR (ErbB1); format: biochemical; conditions: read-out: % of inhibition of the kinase compared to the control
T9 construct: purchased Invitrogen
Outline: as §8

H1975 cell line = assay: In vitro cell proliferation assay (MTT), H1975; format: cell-based; conditions: Homo sapiens, read-out: EC50, anti-proliferative activity
Procedure: as §6, §7

PC3 cell line = assay: In vitro cell proliferation assay (MTT), PC3; format: cell-based; conditions: Homo sapiens, PC-3, 72 h; read-out: EC50, anti-proliferative activity
Procedure: as §6, §7

HUVEC = assay: In vitro cell proliferation assay (MTT), HUVEC; format: cell-based; conditions: Homo sapiens, 72 h, read-out: EC50, anti-proliferative activity
Outline: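 Anti-proliferative effects on human umbilical vein endothelial cells were assessed by an MTT (3[4,5-dimethylthiazol-2-yl]-2,5-diphenyltetrazolium bromide) readout. Cells (1×10^4 cells per well) in 96-well plates were incubated in duplicate for 72 hr with escalating test compound concentrations spanning 10 nM to 3 μM.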

HuCCT1 cell line = assay: In vitro cell proliferation assay (MTT), HuCCT1; format: cell-based; conditions: Homo sapiens, read-out: EC50, anti-proliferative activity
Procedure: as §6, §7

MDA-MB-231 cell line = assay: In vitro cell proliferation assay (MTT), MDA-MB-231; format: cell-based; conditions: Homo sapiens, MDA-MB-231, 72 h; read-out: EC50, anti-proliferative activity
Outline: as §5

HuH7 cell line = assay: In vitro cell proliferation assay (MTT), HuH7; format: cell-based; conditions: Homo sapiens, Huh-7, 72 h; read-out: EC50, anti-proliferative activity
Procedure: as §6, §7

Caki-2 = assay: In vitro cell proliferation assay (MTT), Caki-2; format: cell-based; conditions: Homo sapiens, read-out: EC50, anti-proliferative activity
Procedure: as §6, §7

HRMEC cells = assay: In vitro cell proliferation assay (MTT), HRMEC; format: cell-based; conditions: read-out: EC50, anti-proliferative activity
Procedure: as §6, §7

HuH6 Clone 5 cell line = assay: In vitro cell proliferation assay (MTT), HuH6 Clone 5; format: cell-based; conditions: read-out: EC50, anti-proliferative activity
Procedure: as §6, §7

HepG2 cells = assay: Human hepatocellular carcinoma mouse model (HepG2 xenograft); format: in vivo, athymic nude male mice; conditions: 20 mg/kg q.d. per os for 15 consecutive days; for Anti-tumor activity (Tumor Growth Inhibition—TGI): mice, HepG2 xenograft, end of study vs vehicle
Procedure: 3) In Vivo Studies (Table 36)
Human hepatocellular carcinoma mouse model was prepared by subcutaneously implanting HepG2 cells (1×10^7 cell/mL in sterile PBS), into the right flank of athymic nude male mice (HSD, 6-7 weeks old). When the tumor volume reached approximately 200 mm^3, mice were assigned randomly to either vehicle alone or ORB compounds treatment groups (six mice per group). Mice were treated with either vehicle (PEG400) or OR0720, OR0721, OR0811 (20 mg/kg q.d.; per os for 15 consecutive days).
Tumor volumes in mm^3 were determined three times a week with a digital caliper and calculated using the following formula: Tumor Volume (mm)=length (mm)×width (mm)×width (mm)×½. Body weight was measured three times a week, and mice were observed daily for monitoring signs of stress to detect possible toxicities. One-way ANOVA was used for statistical comparisons. Data were analyzed with Prism 5.0 b (GraphPad Software) by one-way ANOVA with Bonferroni post hoc. Tumor Growth Inhibition (TGI) is calculated as the percent decrease of tumor growth at the end of the study in the ORB compounds treatment groups in comparison to the vehicle alone treatment group.

HeLa cell line = assay: In vitro cell proliferation assay (MTT), HeLa; format: cell-based; conditions: Homo sapiens, 72 h, read-out: EC50, anti-proliferative activity
Procedure: as §6, §7

T5 sequence (P16234 24-1089): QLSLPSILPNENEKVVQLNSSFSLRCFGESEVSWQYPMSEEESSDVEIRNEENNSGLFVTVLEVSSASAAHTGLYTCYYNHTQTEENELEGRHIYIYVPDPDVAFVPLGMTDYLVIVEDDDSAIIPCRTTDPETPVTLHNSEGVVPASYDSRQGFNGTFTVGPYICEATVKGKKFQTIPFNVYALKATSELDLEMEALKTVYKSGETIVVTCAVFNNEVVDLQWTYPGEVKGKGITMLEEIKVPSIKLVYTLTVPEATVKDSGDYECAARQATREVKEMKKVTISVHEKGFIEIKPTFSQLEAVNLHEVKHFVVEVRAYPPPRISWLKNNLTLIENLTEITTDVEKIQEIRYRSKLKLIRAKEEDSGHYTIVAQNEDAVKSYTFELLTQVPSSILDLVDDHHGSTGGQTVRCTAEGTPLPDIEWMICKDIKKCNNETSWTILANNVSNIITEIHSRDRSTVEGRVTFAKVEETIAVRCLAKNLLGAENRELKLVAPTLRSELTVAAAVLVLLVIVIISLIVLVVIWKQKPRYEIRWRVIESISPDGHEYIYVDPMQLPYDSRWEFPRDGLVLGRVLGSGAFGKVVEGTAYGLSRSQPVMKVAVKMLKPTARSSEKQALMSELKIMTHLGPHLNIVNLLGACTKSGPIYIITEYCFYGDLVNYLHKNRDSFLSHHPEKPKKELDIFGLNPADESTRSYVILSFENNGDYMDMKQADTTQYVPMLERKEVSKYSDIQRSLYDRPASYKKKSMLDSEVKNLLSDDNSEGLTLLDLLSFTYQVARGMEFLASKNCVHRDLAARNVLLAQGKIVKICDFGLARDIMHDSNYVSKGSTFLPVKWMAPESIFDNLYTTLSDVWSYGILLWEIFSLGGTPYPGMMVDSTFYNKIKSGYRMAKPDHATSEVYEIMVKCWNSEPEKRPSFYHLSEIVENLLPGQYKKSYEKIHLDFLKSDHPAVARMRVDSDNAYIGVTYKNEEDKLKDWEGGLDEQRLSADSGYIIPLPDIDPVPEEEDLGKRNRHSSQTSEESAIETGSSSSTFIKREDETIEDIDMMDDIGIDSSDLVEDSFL
T8 sequence (P00533 25-1210 T790M/L858R): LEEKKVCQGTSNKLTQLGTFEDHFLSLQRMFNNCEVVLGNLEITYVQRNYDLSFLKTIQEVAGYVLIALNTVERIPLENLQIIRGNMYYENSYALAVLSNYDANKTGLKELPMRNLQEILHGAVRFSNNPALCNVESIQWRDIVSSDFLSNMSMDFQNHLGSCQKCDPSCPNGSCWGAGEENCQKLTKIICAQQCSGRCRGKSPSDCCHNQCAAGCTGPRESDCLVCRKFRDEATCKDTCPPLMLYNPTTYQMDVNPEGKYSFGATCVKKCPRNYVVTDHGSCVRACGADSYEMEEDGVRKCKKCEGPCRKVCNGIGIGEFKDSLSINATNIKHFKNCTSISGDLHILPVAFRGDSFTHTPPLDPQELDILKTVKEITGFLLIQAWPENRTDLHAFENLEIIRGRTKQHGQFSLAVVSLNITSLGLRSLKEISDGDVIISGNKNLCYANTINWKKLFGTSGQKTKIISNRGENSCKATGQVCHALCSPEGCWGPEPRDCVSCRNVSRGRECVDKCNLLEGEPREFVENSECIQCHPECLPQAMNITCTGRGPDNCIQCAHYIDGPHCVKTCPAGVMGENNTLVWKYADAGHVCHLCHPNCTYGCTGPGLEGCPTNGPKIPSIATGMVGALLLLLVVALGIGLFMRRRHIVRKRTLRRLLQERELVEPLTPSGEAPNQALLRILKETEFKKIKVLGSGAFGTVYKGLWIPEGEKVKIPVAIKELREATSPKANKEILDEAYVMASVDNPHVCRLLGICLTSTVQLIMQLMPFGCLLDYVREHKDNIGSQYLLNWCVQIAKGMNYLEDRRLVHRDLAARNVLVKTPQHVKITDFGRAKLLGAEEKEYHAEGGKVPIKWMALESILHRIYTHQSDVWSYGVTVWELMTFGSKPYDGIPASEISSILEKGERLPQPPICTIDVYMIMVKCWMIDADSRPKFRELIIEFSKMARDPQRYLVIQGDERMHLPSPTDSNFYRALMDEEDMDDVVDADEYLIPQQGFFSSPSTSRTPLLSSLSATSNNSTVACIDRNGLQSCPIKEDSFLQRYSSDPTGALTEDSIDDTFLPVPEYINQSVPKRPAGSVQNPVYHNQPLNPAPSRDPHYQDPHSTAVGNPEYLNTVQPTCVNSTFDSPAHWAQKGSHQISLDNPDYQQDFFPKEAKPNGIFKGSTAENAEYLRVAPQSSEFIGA
T4 sequence (P21802 22-821): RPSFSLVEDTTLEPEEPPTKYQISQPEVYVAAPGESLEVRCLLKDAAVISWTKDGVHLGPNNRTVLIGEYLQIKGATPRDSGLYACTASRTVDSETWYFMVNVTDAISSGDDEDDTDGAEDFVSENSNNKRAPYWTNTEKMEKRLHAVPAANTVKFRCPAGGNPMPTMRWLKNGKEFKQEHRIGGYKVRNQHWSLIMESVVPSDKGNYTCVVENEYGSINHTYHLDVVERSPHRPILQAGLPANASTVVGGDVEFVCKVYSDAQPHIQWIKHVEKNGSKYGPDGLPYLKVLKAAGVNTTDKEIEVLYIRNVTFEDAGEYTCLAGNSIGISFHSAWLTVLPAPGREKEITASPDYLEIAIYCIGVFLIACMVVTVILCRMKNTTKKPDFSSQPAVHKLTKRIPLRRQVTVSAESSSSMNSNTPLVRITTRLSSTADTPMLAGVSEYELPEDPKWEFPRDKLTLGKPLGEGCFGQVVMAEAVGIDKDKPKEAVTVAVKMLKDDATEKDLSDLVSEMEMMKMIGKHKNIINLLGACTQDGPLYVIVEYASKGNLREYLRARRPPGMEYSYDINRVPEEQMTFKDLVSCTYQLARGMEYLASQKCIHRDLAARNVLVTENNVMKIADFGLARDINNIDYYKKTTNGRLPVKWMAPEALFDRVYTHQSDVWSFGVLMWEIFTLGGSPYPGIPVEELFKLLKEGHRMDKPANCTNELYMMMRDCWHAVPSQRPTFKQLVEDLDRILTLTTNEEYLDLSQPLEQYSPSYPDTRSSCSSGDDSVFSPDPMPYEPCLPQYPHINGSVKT
T3 sequence (P35968 20-1356): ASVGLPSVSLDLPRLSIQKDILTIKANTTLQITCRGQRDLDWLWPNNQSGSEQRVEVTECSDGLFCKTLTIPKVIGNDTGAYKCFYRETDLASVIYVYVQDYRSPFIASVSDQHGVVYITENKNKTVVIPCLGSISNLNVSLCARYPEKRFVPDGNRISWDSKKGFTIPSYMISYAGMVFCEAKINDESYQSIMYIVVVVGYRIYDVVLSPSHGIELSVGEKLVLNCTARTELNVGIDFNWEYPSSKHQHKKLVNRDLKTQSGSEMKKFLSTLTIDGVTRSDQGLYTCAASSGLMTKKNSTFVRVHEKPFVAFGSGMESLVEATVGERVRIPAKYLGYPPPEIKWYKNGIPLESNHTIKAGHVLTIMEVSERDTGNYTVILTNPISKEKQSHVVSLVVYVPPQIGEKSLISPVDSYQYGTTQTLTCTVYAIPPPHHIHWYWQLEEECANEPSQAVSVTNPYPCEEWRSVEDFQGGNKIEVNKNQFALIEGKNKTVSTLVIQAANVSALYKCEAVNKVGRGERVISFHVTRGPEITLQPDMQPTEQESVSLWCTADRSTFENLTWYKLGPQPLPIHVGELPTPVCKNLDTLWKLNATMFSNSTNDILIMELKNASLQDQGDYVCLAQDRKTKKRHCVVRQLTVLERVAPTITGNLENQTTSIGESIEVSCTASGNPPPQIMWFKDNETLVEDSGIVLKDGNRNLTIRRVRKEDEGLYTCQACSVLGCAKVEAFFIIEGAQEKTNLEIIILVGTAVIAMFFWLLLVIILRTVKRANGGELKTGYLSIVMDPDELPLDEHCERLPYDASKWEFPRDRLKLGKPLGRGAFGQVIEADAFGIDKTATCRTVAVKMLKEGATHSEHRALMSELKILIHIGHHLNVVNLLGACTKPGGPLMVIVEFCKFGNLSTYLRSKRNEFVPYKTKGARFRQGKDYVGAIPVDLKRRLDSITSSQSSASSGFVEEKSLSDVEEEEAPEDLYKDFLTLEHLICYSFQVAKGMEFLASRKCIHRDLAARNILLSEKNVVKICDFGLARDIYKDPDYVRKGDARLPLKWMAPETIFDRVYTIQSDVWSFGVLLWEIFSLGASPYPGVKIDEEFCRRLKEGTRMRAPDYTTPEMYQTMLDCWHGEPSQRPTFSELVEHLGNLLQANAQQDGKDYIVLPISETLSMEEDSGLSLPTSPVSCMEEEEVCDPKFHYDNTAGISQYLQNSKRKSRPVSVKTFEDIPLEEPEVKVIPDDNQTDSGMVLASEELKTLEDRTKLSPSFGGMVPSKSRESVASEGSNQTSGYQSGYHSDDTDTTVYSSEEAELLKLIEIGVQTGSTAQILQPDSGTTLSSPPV
T7 sequence (P12931 whole entry): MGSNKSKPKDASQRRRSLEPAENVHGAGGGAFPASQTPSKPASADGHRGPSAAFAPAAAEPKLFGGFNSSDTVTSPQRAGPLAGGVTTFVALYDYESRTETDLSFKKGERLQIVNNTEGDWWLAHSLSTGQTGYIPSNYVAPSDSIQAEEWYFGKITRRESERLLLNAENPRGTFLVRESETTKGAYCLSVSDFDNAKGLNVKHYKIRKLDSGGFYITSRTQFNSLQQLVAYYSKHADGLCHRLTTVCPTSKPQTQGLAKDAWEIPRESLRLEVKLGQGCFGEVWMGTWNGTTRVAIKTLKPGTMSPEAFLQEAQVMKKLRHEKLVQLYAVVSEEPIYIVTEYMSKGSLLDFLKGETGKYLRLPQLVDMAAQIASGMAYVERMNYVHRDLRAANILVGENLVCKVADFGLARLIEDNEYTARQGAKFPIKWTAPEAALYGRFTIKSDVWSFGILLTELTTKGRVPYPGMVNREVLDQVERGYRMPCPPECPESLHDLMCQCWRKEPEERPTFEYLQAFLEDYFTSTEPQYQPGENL

inhibition at 0.1 µM (KDR (VEGFR2)) | inhibition at 0.1 µM (FGFR2) | EC50 (A549 cell line; A549, 72 hr, MTT) | inhibition at 0.1 µM (PDGFRA (PDGFR alpha)) | inhibition at 0.1 µM (BRAF) | EC50 (HT29 cell line; HT-29, HT29, 72 hr, MTT) | inhibition at 0.1 µM (SRC) | inhibition at 0.1 µM (EGFR (ErbB1) T790M L858R) | inhibition at 0.1 µM (EGFR (ErbB1)) | EC50 (H1975 cell line; NCI-H1975, H1975, 72 hr, MTT) | EC50 (HepG2 cell line; HepG2, 72 h) | EC50 (BxPC-3 cell line; BXPC-3, 72 h) | EC50 (PC3 cell line) | EC50 (MDA-MB-231 cell line) | EC50 (HuH7 cell line) | EC50 (A549 cell line; A549, 72 h) | EC50 (HT29 cell line; HT-29, 72 h) | Compound | EC50 (HUVEC) | tumor growth in xenografted mice bearing human hepatocellular carcinoma tumors (HepG2 cells) | Anti-tumor activity (Tumor Growth Inhibition—TGI) (HepG2 cells) | further results
≥ 50% | ≥ 50% | ≥ 1 µM | ≥ 50% | < 50% | ≥ 1 µM | ≥ 50% | ≥ 50% | ≥ 50% | ≥ 1 µM | – | – | – | – | – | – | – | Cc1ccc(NC(=O)c2ccc(CN3CCC(N(C)C)C3)c(C(F)(F)F)c2)cc1CNc1cnc2[nH]c(C(=O)O)cc2c1 (stereo not shown) [OR0528, 5-{5-[4-(3-Dimethylamino-pyrrolidin-1-ylmethyl)-3-trifluoromethyl-benzoylamino]-2-methyl-benzylamino}-1H-pyrrolo[2,3-b]pyridine-2-carboxylic acid] | – | – | – | inhibition at 10 µM (ABL T315I): ≥ 50%; inhibition at 10 µM (ABL): ≥ 50%; EC50 (HepG2 cell line; HepG2, 72 hr, MTT): ≥ 1 µM; EC50 (BxPC-3 cell line; BxPC-3, 72 hr, MTT): ≥ 1 µM
≥ 50% | < 50% | ≥ 1 µM | ≥ 50% | ≥ 50% | ≥ 1 µM | ≥ 50% | < 50% | < 50% | ≥ 1 µM | ≤ 0.1 µM | 0.1 to 1 µM | 0.1 to 1 µM | 0.1 to 1 µM | 0.1 to 1 µM | – | – | CC(=O)c1cc2cc(NCc3cc(NC(=O)c4cncc(C(F)(F)F)c4)ccc3C)cnc2[nH]1 [OR0721, N-{3-[(2-Acetyl-1H-pyrrolo[2,3-b]pyridin-5-ylamino)-methyl]-4-methyl-phenyl}-5-trifluoromethyl-nicotinamide] | 0.1 to 1 µM | significantly induced a decrease of tumor growth | 54%* | EC50 (HuCCT1 cell line; HuCCT-1, HuCCT1, 72 hr, MTT): ≥ 1 µM; EC50 (Caki-2; Caki-2, 72 hr, MTT): ≥ 1 µM; EC50 (HRMEC cells; 72 hr, MTT): ≥ 1 µM; EC50 (HuH6 Clone 5 cell line; HUH-6-clone5, HuH6 Clone 5, 72 hr, MTT): ≥ 1 µM
≥ 50% | ≥ 50% | – | ≥ 50% | ≥ 50% | – | ≥ 50% | ≥ 50% | ≥ 50% | – | ≤ 0.1 µM | ≤ 0.1 µM | ≤ 0.1 µM | ≤ 0.1 µM | 0.1 to 1 µM | ≤ 0.1 µM | ≤ 0.1 µM | CC(=O)c1cc2cc(NCc3cc(NC(=O)c4ccc(CN5CCN(C)CC5)c(C(F)(F)F)c4)ccc3C)cnc2[nH]1 [OR0720, N-{3-[(2-Acetyl-1H-pyrrolo[2,3-b]pyridin-5-ylamino)-methyl]-4-methyl-phenyl}-4-(4-methyl-piperazin-1-ylmethyl)-3-trifluoromethyl-benzamide] | ≤ 0.1 µM | significantly induced a decrease of tumor growth | 66%* | EC50 (HuCCT1 cell line; HuCCT-1, 72 h): 0.1 to 1 µM; EC50 (Caki-2; CAKI-2, 72 h): 0.1 to 1 µM; EC50 (HRMEC cells; 72 h): ≤ 0.1 µM; EC50 (HeLa cell line): 0.1 to 1 µM; EC50 (HuH6 Clone 5 cell line; HUH-6-clone5, 72 h): 0.1 to 1 µM; EC50 (H1975 cell line; NCI-H1975, 72 h): 0.1 to 1 µM
≥ 50% | ≥ 50% | – | – | ≥ 50% | – | – | – | ≥ 50% | ≥ 1 µM | ≤ 0.1 µM | 0.1 to 1 µM | 0.1 to 1 µM | 0.1 to 1 µM | 0.1 to 1 µM | 0.1 to 1 µM | 0.1 to 1 µM | CC(=O)c1cc2cc(NCc3cc(NC(=O)c4ccc(CN5CC[C@H](N(C)C)C5)c(C(F)(F)F)c4)ccc3C)cnc2[nH]1 [OR0811, N-{3-[(2-Acetyl-1H-pyrrolo[2,3-b]pyridin-5-ylamino)-methyl]-4-methyl-phenyl}-4-((S)-3-dimethylamino-pyrrolidin-1-ylmethyl)-3-trifluoromethyl-benzamide] | 0.1 to 1 µM | significantly induced a decrease of tumor growth | 75%* | EC50 (Caki-2; CAKI-2, 72 h): 0.1 to 1 µM; EC50 (HRMEC cells; 72 h): 0.1 to 1 µM

Reference: US9403823B2, “Protein kinase inhibitors” (ORIBASE PHARMA, priority 2012, dated 2016)
